Laboratory results from US20230085307A1, “PYRIDAZINONE COMPOUND AND HERBICIDE” (NISSAN CHEMICAL CORPORATION, priority 2019, published 2023).

melting point	SMILES
161 to 163 °C	COc1ccccc1-c1sc2ccc(I)cc2c1-c1c(OC)c(C)nn(C)c1=O [Compound No. 2-131, 4-(5-iodo-2-(2-methoxyphenyl)benzo[b]thiophen-3-yl)-5-methoxy-2,6-dimethylpyridazin-3(2H)-one]
219 to 221 °C	COc1ccccc1-c1sc2ccc(N)cc2c1-c1c(OC)c(C)nn(C)c1=O [Compound No. 2-174, 4-(5-amino-2-(2-methoxyphenyl)benzo[b]thiophen-3-yl)-5-methoxy-2,6-dimethylpyridazin-3(2H)-one]
